According to US20060234909A1, “Compositions and methods for increasing drug efficiency” (priority 2003, published 2006):
Where two headings read alike, the source gives them in different places. Ends that are not written are not given here.

Key:
[1] = biological target: Tie-2 (Homo sapiens, UniProt Q02763); settings: Deng et al. 2001; read-out: Km as substrate for Tie-2; cited from earlier work
[2] = biological target: Met kinase (Homo sapiens, UniProt P08581); settings: Hays and Watowich 2003; read-out: Km as substrate for Met kinase; cited from earlier work
Sequence of Met kinase (P08581 25-1390): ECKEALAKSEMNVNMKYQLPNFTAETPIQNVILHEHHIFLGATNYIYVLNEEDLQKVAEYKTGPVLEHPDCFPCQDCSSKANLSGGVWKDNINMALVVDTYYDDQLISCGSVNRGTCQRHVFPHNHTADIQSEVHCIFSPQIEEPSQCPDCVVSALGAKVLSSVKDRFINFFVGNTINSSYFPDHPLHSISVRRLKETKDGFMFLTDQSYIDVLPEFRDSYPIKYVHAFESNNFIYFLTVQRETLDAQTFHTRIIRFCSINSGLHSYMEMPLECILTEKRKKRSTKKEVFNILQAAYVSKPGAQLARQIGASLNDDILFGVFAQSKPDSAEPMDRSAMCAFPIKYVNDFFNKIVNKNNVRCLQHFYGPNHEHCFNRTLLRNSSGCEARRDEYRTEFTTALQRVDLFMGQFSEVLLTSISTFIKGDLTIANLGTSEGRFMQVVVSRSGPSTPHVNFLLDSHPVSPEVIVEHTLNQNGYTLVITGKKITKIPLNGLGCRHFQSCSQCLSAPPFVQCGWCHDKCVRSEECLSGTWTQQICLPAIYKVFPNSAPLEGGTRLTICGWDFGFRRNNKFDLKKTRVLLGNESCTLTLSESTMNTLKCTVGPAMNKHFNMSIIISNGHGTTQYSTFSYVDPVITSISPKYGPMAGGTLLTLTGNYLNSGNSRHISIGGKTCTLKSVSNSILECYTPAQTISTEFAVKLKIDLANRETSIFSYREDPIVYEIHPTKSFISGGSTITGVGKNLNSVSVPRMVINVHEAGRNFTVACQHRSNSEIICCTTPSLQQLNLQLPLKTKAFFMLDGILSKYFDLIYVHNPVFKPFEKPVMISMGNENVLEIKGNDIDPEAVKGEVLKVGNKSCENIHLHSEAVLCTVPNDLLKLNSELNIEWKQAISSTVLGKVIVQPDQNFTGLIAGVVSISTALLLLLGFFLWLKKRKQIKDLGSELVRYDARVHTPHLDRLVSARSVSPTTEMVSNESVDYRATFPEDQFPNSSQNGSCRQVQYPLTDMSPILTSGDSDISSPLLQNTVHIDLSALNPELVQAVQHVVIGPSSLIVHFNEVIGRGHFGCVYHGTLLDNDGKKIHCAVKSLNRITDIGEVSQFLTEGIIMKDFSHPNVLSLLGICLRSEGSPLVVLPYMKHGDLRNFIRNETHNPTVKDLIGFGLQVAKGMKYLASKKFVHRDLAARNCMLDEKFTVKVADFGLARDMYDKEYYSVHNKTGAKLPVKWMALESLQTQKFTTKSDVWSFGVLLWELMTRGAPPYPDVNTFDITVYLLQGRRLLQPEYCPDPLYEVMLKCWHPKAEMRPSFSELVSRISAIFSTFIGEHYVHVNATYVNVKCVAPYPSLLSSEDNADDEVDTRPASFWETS

[3] = biological target: Akt (Homo sapiens, UniProt P31749); settings: Akt peptide substrates, Alessi et al. 1996; cited from earlier work
Sequence of Akt (P31749 whole entry): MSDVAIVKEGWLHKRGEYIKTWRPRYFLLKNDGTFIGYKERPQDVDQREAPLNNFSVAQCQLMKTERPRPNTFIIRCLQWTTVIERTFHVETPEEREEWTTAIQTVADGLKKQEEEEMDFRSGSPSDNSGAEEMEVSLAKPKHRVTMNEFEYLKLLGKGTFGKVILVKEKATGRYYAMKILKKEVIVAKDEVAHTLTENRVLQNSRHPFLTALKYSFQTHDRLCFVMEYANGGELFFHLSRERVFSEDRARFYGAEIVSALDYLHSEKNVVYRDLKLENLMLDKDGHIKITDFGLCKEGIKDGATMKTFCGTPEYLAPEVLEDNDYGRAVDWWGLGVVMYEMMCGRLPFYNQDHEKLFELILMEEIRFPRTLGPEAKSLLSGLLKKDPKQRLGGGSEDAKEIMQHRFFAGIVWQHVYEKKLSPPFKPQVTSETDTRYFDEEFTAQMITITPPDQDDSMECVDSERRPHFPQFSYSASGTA

[4] = system: tubulin; assay: Fluorescence-based tubulin polymerization assay (MPA; enhancement for paclitaxel, inhibition for vinblastine); format: biochemical
How it was run: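 Tubulin polymerisation was followed by fluorescence (ex 360/em 405 nm) with 1 mg/ml BSA in all assays. For paclitaxel conjugates, glycerol was omitted. Parent drugs and conjugates were tested at 0.75, 1.5, 3 and 10 micromolar final, and values come from the linear range of the dose responses.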

[5] = system: MCF-7 breast carcinoma; assay: Cytotoxicity assay (monolayer), MCF-7; format: cell-based; settings: MCF7, ML (monolayer), read-out: MCF7 (EC50 Ave) ML;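 further: cells treated 72 h with 6-8 compound doses versus DMSO vehicle controls, EC50 fitted by 4-parameter dose-response curves, averaged across all tests and lots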
[6] = system: HT-29 colorectal carcinoma; assay: Cytotoxicity assay (monolayer), HT-29; format: cell-based; settings: HT29, ML (monolayer), read-out: HT29 (EC50 Ave) ML;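 further: monolayer cultures tested in triplicate, compound exposure for three days against DMSO vehicle controls, EC50 fitted from dose-response curves and averaged across all tests and lots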
[7] = system: HUVEC; assay: Cytotoxicity assay (monolayer), HUVEC; format: cell-based; settings: ML (monolayer), read-out: HUVEC (EC50 Ave) ML
[8] = system: Normal human foreskin fibroblasts (HFF); assay: cells; settings: Fibroblast
[9] = system: MCF-7 cells; assay: cells; settings: Homo sapiens
[10] = system: HT-29 cells; assay: cells; settings: Homo sapiens
[11] = Serum stability in RPMI1640 medium containing 10% fetal bovine serum; format: in vitro ADME; settings: for remaining at 4 h, 10 μM / remaining at 8 h, 10 μM / remaining at 24 h, 10 μM / remaining at 72 h, 10 μM / half-life at 10 μM: bovine; for remaining at 4 h, 10 μM: read-out: Relative Percent Remaining at 4 hr; for remaining at 8 h, 10 μM: read-out: Relative Percent Remaining at 8 hr; for remaining at 24 h, 10 μM: read-out: Relative Percent Remaining at 24 hr; for remaining at 72 h, 10 μM: read-out: Relative Percent Remaining at 72 hr; for half-life at 10 μM: read-out: T½ (converted)
Description: The stability of conjugates was measured in RPMI1640 cell culture medium containing 10% fetal bovine serum. The serum-containing medium was pre-warmed at 37° C. for 3 min prior to addition of test articles. Test articles, prepared in DMSO as 5 mM stocks, were added to the cell culture media to a final concentration of 10 μM. Aliquots ([…]) were withdrawn in triplicate at 0, 4, 8, 24 and 72 hours and combined with the same volume of ice-cold acetonitrile to terminate the reaction. The mixture was centrifuged at 2,000×g for 10 minutes. One part of the supernatant was mixed with four parts of deionized water to bring down the percentage of organic solvent. The diluted samples were then assayed by LC/MS for the test article. The natural log of the percent remaining was plotted versus time. A linear fit was used to determine the rate constant. The fit was truncated after the percent of remaining test article was less than 10%. The elimination half-lives associated with the disappearance of test articles were determined to compare their relative stability. The assays were carried out by Absorption Systems (Exton, Pa.).

[12] = in vitro; settings: human
[13] = biological target: T1, Human Src (Homo sapiens, UniProt P12931); assay: Src kinase assay (PKLight ATP utilization, substrate phosphorylation as % of parent peptide); format: biochemical
T1 construct: purchased Upstate (Charlottesville, Va.) 14-326
T1 sequence (P12931 whole entry): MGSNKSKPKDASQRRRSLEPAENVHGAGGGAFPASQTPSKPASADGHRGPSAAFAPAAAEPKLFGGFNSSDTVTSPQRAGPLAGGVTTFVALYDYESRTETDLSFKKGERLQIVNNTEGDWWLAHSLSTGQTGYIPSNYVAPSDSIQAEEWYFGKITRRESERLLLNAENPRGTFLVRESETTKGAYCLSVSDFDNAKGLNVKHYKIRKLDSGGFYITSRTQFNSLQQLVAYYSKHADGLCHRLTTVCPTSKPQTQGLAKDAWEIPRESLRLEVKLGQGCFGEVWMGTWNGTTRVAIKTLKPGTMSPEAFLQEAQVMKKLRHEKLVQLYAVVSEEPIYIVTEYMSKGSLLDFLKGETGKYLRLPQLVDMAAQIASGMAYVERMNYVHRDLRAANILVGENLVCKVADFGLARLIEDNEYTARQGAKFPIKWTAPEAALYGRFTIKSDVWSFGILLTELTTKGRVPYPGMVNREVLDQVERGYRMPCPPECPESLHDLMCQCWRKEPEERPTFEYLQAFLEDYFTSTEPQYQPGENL
How it was run: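 Recombinant human Src or Akt phosphorylated peptide or drug–peptide conjugate substrates (25, 50, 100 μM) at 30° C for 2–5 hours, in Tris-HCl pH 7.5 buffer with MgCl2 and ATP. ATP use was read by luciferase luminescence against no-substrate and no-ATP controls. Phosphorylation was taken from the linear range and expressed as % of the parent peptide.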

[14] = system: Normal human foreskin fibroblasts (HFF)
[15] = system: MCF-7 cells
[16] = system: HT-29 cells
[17] = system: tumor cells vs normal cells; assay: Cytotoxic selectivity index (normal cells in monolayer vs tumor cells in soft agar)
[18] = MCF7, read-out: MCF7 (EC50 Ave) SA
[19] = HT-29, read-out: HT29 (EC50 Ave) SA
[20] = read-out: HFF (EC50 Ave) ML, HFF, ML (monolayer)
[21] = read-out: MCF7 (EC50 Ave) SA, MCF7, SA (soft agar)
[22] = read-out: HT29 (EC50 Ave) SA, HT29, SA (soft agar)
[23] = read-out: HFFMonolayer EC50, HFF normal cells, monolayer, 72 hours, mean ± SD
[24] = read-out: MCF-7 Soft Agar EC50, MCF-7 tumor cells, soft agar, 10-14 days, mean ± SD
[25] = read-out: HT-29 Soft Agar EC50, HT-29 tumor cells, soft agar, 10-14 days, mean ± SD

Sequence of Tie-2 (Q02763 23-1124, species assumed): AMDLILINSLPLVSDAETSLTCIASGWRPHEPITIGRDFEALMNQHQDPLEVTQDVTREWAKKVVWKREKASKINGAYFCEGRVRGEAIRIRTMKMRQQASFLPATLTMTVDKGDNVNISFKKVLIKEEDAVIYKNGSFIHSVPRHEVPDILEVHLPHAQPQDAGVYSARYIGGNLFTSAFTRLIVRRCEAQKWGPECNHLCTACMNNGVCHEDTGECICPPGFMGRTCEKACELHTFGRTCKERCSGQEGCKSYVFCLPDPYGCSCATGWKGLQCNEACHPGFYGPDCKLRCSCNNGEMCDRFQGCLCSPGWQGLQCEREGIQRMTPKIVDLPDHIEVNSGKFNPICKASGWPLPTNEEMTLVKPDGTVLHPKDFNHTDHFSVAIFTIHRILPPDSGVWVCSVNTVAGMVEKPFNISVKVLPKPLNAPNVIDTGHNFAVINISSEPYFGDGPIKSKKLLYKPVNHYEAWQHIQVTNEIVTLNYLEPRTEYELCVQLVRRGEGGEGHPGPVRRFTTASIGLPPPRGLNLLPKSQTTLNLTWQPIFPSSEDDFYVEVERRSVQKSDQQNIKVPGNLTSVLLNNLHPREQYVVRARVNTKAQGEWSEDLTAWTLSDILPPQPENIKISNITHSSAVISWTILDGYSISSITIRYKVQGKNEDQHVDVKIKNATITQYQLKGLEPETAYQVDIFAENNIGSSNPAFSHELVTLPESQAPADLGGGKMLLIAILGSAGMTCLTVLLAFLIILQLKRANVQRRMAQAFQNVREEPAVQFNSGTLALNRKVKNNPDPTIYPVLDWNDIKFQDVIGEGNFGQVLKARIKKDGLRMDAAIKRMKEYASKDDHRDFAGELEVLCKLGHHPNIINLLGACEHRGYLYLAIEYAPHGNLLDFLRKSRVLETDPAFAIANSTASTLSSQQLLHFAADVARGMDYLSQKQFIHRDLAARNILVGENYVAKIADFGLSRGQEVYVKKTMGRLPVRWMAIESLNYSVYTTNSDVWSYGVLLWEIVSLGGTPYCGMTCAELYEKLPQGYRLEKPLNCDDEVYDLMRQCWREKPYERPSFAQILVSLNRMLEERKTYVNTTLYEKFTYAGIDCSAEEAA

Molecule | Ave. MPA Act. [4] | Relative Percent Remaining at 0 hr [11] | remaining at 4 h, 10 μM [11] | remaining at 8 h, 10 μM [11] | remaining at 24 h, 10 μM [11] | remaining at 72 h, 10 μM [11] | half-life at 10 μM [11] | EC50 [5] | EC50 [6] | EC50 [7] | EC50 [14, 20] | EC50 [15, 21] | EC50 [16, 22] | Cytotoxic Selectivity Index HFF/HT29 [17] | other results
RLVAYEGWV [nine amino acid peptide substrate for Tie-2] |  |  |  |  |  |  |  |  |  |  |  |  |  |  | Km [1]: 119 µM
DSDVHVNATYVNVKCVAP [18 amino acid peptide substrate for Met kinase] |  |  |  |  |  |  |  |  |  |  |  |  |  |  | Km [2]: 67 µM
RPRTSTF [peptide substrate for Akt from the literature] |  |  |  |  |  |  |  |  |  |  |  |  |  |  | specificity with respect to related MAP kinase and S6 kinase [3]: exhibit specificity
RPRAATF [peptide substrate for Akt from the literature] |  |  |  |  |  |  |  |  |  |  |  |  |  |  | specificity with respect to related MAP kinase and S6 kinase [3]: exhibit specificity
CC[C@]1(O)C[C@@H]2CN(CCc3c([nH]c4ccccc34)[C@@](C(=O)OC)(c3cc4c(cc3OC)N(C)[C@H]3[C@@](O)(C(=O)OC)[C@H](OC(C)=O)[C@]5(CC)C=CCN6CC[C@]43[C@@H]65)C2)C1 [Vinblastine (VBL)] | C (C>80) |  |  |  |  |  |  |  |  |  |  |  |  |  | EC50 ([5]; Homo sapiens): < 20 nM; EC50 ([6]; Homo sapiens, HT-29): < 20 nM; EC50 ([7]; Homo sapiens): < 20 nM; EC50 ([8]; read-out: HFF (EC50 Ave) ML): < 20 nM; EC50 [9, 18]: < 20 nM; EC50 [10, 19]: < 20 nM
CC(=O)O[C@H]1C(=O)[C@@]2(C)[C@H]([C@H](OC(=O)c3ccccc3)[C@]3(O)C[C@H](OC(=O)[C@H](O)[C@@H](NC(=O)c4ccccc4)c4ccccc4)C(C)=C1C3(C)C)[C@]1(OC(C)=O)CO[C@@H]1C[C@@H]2O [Paclitaxel (PXL)] | C (C>80) |  |  |  |  |  |  |  |  |  |  |  |  |  | EC50 ([5]; Homo sapiens): < 20 nM; EC50 ([6]; Homo sapiens, HT-29): < 20 nM; EC50 ([7]; Homo sapiens): < 20 nM; EC50 ([8]; read-out: HFF (EC50 Ave) ML): < 20 nM; EC50 [9, 18]: < 20 nM; EC50 [10, 19]: < 20 nM
CC[C@]1(O)C[C@@H]2CN(CCc3c([nH]c4ccccc34)[C@@](C(=O)OC)(c3cc4c(cc3OC)N(C)[C@H]3[C@@](O)(C(=O)OC)[C@H](OC(C)=O)[C@]5(CC)C=CCN6CC[C@]43[C@@H]65)C2)C1 [Vinblastine, reference compound] |  | 100% | 95% | 95% | 87% | 67% | > 72 h |  |  |  |  |  |  |  | EC50 ([8]; 72 h, read-out: HFFMonolayer EC50): 1.5 ± 0.5 nM; EC50 ([9]; MCF7, read-out: MCF-7 Soft Agar EC50): 7 ± 5 nM; EC50 ([10]; HT-29, read-out: HT-29 Soft Agar EC50): 7 ± 7 nM; selectivity ratio [12]: 0.2
CC[C@H](C)[C@H](NC(=O)[C@H](Cc1ccc(O)cc1)NC(=O)[C@H](CCC(=O)O)NC(C)=O)C(=O)N[C@@H](Cc1ccc(O)cc1)C(=O)NCC(=O)N[C@@H](CO)C(=O)N[C@@H](Cc1ccccc1)C(=O)N[C@@H](CCCCN)C(=O)NCCCOCCOCCOCCCNC(=O)O[C@H]1C(=O)[C@@]2(C)[C@H]([C@H](OC(=O)c3ccccc3)[C@]3(O)C[C@H](OC(=O)[C@H](O)[C@@H](NC(=O)c4ccccc4)c4ccccc4)C(C)=C1C3(C)C)[C@]1(OC(C)=O)CO[C@@H]1C[C@@H]2O | B (B=50-80) | 100% | 95% | 99% | 69% | 22% | 32 h | > 100 nM | > 100 nM | > 100 nM | > 100 nM | > 100 nM | > 100 nM | 20.5 | Average src kinase activity [13]: C (C>40); selectivity ratio [12]: 24.1
CC[C@H](C)[C@H](NC(=O)[C@H](Cc1ccc(O)cc1)NC(=O)OCc1ccccc1)C(=O)N[C@@H](Cc1ccc(O)cc1)C(=O)NCC(=O)N[C@@H](CO)C(=O)N[C@@H](Cc1ccccc1)C(=O)N[C@@H](CCCCN)C(=O)NCCOCCOCCOCCNC(=O)[C@@]1(O)[C@H](O)[C@]2(CC)C=CCN3CC[C@@]4(c5cc([C@@]6(C(=O)OC)C[C@@H]7CN(CCc8c6[nH]c6ccccc86)C[C@](O)(CC)C7)c(OC)cc5N(C)[C@@H]14)[C@@H]32 [CBz-YIYGSFK-PEG(11)-3Am-VBL] |  | 100% | 88% | 102% | 100% | 61% | > 72 h | > 100 nM | > 100 nM | > 100 nM | > 100 nM | > 100 nM | > 100 nM | 1.4 | EC50 [14, 23]: 655 ± 186 nM; EC50 [15, 24]: 156 ± 37 nM; EC50 [16, 25]: 464 ± 351 nM; Cytotoxic Selectivity Index HFF/MCF7 [17]: 4.2
CC[C@H](C)[C@H](NC(=O)[C@H](Cc1ccc(O)cc1)NC(=O)C(C)(C)C)C(=O)N[C@@H](Cc1ccc(O)cc1)C(=O)NCC(=O)N[C@@H](CO)C(=O)N[C@@H](Cc1ccccc1)C(=O)N[C@@H](CCCNC(=N)N)C(=O)NCCCOCCOCCOCCCNC(=O)O[C@H]1C(=O)[C@@]2(C)[C@H]([C@H](OC(=O)c3ccccc3)[C@]3(O)C[C@H](OC(=O)[C@H](O)[C@@H](NC(=O)c4ccccc4)c4ccccc4)C(C)=C1C3(C)C)[C@]1(OC(C)=O)CO[C@@H]1C[C@@H]2O [Pv-YIYGSFR-PEG(13)-10Ca-PXL] | B (B=50-80) | 100% | 73% | 63% | 63% | 64% | > 72 h | > 100 nM | > 100 nM | > 100 nM | > 100 nM | 20 to 100 nM | > 100 nM | 12.3 | EC50 [14, 23]: 2140 nM; EC50 [15, 24]: 80 ± 13 nM; EC50 [16, 25]: 175 ± 43 nM; Cytotoxic Selectivity Index HFF/MCF7 [17]: 26.6
